The values below come from US20120157548A1, “USE OF CYCLOALIPHATIC DIOLS AS BIOCIDES” (BASF SE, priority 2009, published 2012).

One assay has as its system P. vulgaris NCIMB 4175. Nature of the assay: Biocide test, MIC in tryptone soy broth. It counts as cell-based. Conditions: 30° C., 48 hours; for MIC value, from: lower limit of MIC range; for MIC value, to: upper limit of MIC range. The protocol:
(§1) For this, in each case a 40 percent strength by weight solution of a diol in propylene glycol was prepared at 60° C.
(§2) This solution was diluted with a double-strength soy solution (double-strength tryptone soy broth) as nutrient medium in the volume ratio 1:1. Further dilution with soy solution produced solutions with the following concentrations:
(§3) The following microorganisms were used to test the biocidal effect against various bacteria and fungi:
(§4) Pure soy solution was used as negative control. The positive control used was a solution of 5 ml of soy solution which has been treated with 0.1 ml of the respective microorganism. The test solutions consisted of 5 ml of the above-described soy solutions of the diols in the particular concentration which have been mixed with 0.1 ml of the respective microorganism.
(§5) The samples and controls were incubated in the case of the bacteria at 30° C. for 48 hours, and in the case of fungi over 5 days at 25° C.
(§6) In each case, the MIC (Minimum Inhibitory Concentration) value was determined. This value indicates the minimum concentration above which the growth of the microorganisms was visibly hindered compared to the corresponding sample without addition of the diol.
(§7) The lower the MIC value, the greater the biocidal effect.
(§8) For example, this was evident from the occurrence of clouding or visible growth of the microorganism.
(§9) The MIC value stated is a range between the next higher concentration of a positive test and the same and/or lower concentration of a first negative test.

The next assay has as its system E. coli NCIMB 8545. Nature of the assay: Biocide test, MIC in tryptone soy broth. In kind it is cell-based. The conditions noted are these: 30° C., 48 hours; for MIC value, from: lower limit of MIC range; for MIC value, to: upper limit of MIC range. How it is done:
as §1, §2, §3, §4, §5, §6, §7, §8, §9

The test system of another assay is S. aureus NCIMB 9578. Nature of the assay: Biocide test, MIC in tryptone soy broth. It counts as cell-based. The conditions noted are these: 30° C., 48 hours; for MIC value, from: lower limit of MIC range; for MIC value, to: upper limit of MIC range. The protocol: as §1, §2, §3, §4, §5, §6, §7, §8, §9
The test system of a further assay is A. niger IMI 149007. Nature of the assay: Biocide test, MIC in tryptone soy broth. Conditions: 25° C., 5 days; for MIC value, from: lower limit of MIC range; for MIC value, to: upper limit of MIC range. In kind it is cell-based. How it is done: as §1, §2, §3, §4, §5, §6, §7, §8, §9
The subject of another assay is C. albicans NCPF 3179. As to the kind of experiment: Biocide test, MIC in tryptone soy broth. The conditions noted are these: 25° C., 5 days; for MIC value, from: lower limit of MIC range; for MIC value, to: upper limit of MIC range. In kind it is cell-based. The protocol:
as §1, §2, §3, §4, §5, §6, §7, §8, §9

Assay [1] concerns series of tested microorganisms. Nature of the assay: Biocide test, highest measured MIC from the series of tested microorganisms. The conditions noted are these: highest measured MIC of the six microorganisms; for Maximum MIC value, from: lower limit of range; for Maximum MIC value, to: upper limit of range. In kind it is cell-based. The protocol: as §3, §6, §9
In the last line of each of the tables below, a “maximum” value is listed. This value indicates the highest measured MIC value in each case from the series of tested microorganisms.

The next assay has as its system microorganisms. The conditions noted are these: as stated for the comparison substances; cited from earlier work.
Assay [2] has as its system P. aeruginosa NCIMB 10421. Nature of the assay: Biocide test, MIC in tryptone soy broth. In kind it is cell-based. Conditions: 30° C., 48 hours; for MIC value, from: lower limit of MIC range; for MIC value, to: upper limit of MIC range. The protocol:
as §1, §2, §3
P. aeruginosa NCIMB 10421
as §4, §5, §6, §7, §8, §9

Turning to `CC(O)CC(C)O` (centres unmarked) [2,4-Pentanediol], the “MIC value, from” value in the assay on P. vulgaris NCIMB 4175 is >50 000 ppm of diol; against E. coli NCIMB 8545, >50 000 ppm of diol; in the assay on S. aureus NCIMB 9578, >50 000 ppm of diol; in the assay on A. niger IMI 149007 it was >200 000 ppm of diol; against C. albicans NCPF 3179, >50 000 ppm of diol; in assay [2], >50 000 ppm of diol. The “MIC value, to” value is “≦100 000 ppm of diol” with P. vulgaris NCIMB 4175; “≦100 000 ppm of diol” in the assay on E. coli NCIMB 8545; “≦100 000 ppm of diol” against S. aureus NCIMB 9578; “≦400 000 ppm of diol” against A. niger IMI 149007; “≦100 000 ppm of diol” in the assay with C. albicans NCPF 3179; “≦100 000 ppm of diol” in assay [2]. The “Maximum MIC value, from” value in assay [1] was >200 000 ppm of diol. The “Maximum MIC value, to” value in assay [1] is listed as “≦400 000 ppm of diol”. In addition, in the assay on microorganisms, the biocidal effect entry was “low biocidal effect”.

Turning to “Hydroxymethylbicyclo[2.2.1]hept-2-ylmethanol isomers [2,5-2,6-DMNB]”, the “MIC value, from” value in the assay with P. vulgaris NCIMB 4175 was >6 250 ppm of diol; against E. coli NCIMB 8545 it was >6 250 ppm of diol; with S. aureus NCIMB 9578 it was >6 250 ppm of diol; against A. niger IMI 149007, >50 000 ppm of diol; in the assay on C. albicans NCPF 3179, >50 000 ppm of diol; in assay [2], >6 250 ppm of diol. Besides, the “MIC value, to” value is given as “≦12 500 ppm of diol” against P. vulgaris NCIMB 4175; “≦12 500 ppm of diol” in the assay with E. coli NCIMB 8545; “≦12 500 ppm of diol” against S. aureus NCIMB 9578; “≦100 000 ppm of diol” against A. niger IMI 149007; “≦100 000 ppm of diol” in the assay with C. albicans NCPF 3179; “≦12 500 ppm of diol” in assay [2]. In addition, the “Maximum MIC value, from” value in assay [1] is reported as >50 000 ppm of diol. For the same compound, the “Maximum MIC value, to” value in assay [1] is “≦100 000 ppm of diol”.

As to `CCCC(O)CO` (centres unmarked) [1,2-Pentanediol], the “MIC value, from” value against P. vulgaris NCIMB 4175 is >25 000 ppm of diol; in the assay on E. coli NCIMB 8545 it was >25 000 ppm of diol; in the assay on S. aureus NCIMB 9578, >25 000 ppm of diol; in the assay on A. niger IMI 149007, >12 500 ppm of diol; against C. albicans NCPF 3179 it was >25 000 ppm of diol; in assay [2] it was >12 500 ppm of diol. Moreover, the “MIC value, to” value in the assay on P. vulgaris NCIMB 4175 is “≦50 000 ppm of diol”; in the assay with E. coli NCIMB 8545 it was “≦50 000 ppm of diol”; in the assay on S. aureus NCIMB 9578, “≦50 000 ppm of diol”; against A. niger IMI 149007 it was “≦25 000 ppm of diol”; with C. albicans NCPF 3179, “≦50 000 ppm of diol”; in assay [2], “≦25 000 ppm of diol”. Further, the “Maximum MIC value, from” value in assay [1] was >25 000 ppm of diol. Also, in assay [1], the “Maximum MIC value, to” value is recorded as “≦50 000 ppm of diol”. Besides, in the assay with microorganisms, the biocidal effect result is “high biocidal effect”.

In the case of “Hydroxymethylcyclohexylpropan-1-ol isomers [CHA-diol]”, the “MIC value, from” value is on record as >3 125 ppm of diol in the assay with P. vulgaris NCIMB 4175; >3 125 ppm of diol against E. coli NCIMB 8545; >6 250 ppm of diol in the assay on S. aureus NCIMB 9578; >200 000 ppm of diol against A. niger IMI 149007; >6 250 ppm of diol in the assay on C. albicans NCPF 3179; >50 000 ppm of diol in assay [2]. For the same compound, the “MIC value, to” value was “≦6 250 ppm of diol” in the assay with P. vulgaris NCIMB 4175; “≦6 250 ppm of diol” in the assay with E. coli NCIMB 8545; “≦12 500 ppm of diol” in the assay with S. aureus NCIMB 9578; “≦400 000 ppm of diol” against A. niger IMI 149007; “≦12 500 ppm of diol” with C. albicans NCPF 3179; “≦100 000 ppm of diol” in assay [2]. Further, the “Maximum MIC value, from” value in assay [1] is >200 000 ppm of diol. For the same compound, the “Maximum MIC value, to” value in assay [1] is “≦400 000 ppm of diol”.

Take “Hydroxymethylbicyclo[2.2.1]hept-2-ylpropan-1-ol isomers [ENB-Diol]”: the “MIC value, from” value in the assay on P. vulgaris NCIMB 4175 is recorded as >3 125 ppm of diol; against E. coli NCIMB 8545, >3 125 ppm of diol; against S. aureus NCIMB 9578 it was >3 125 ppm of diol; in the assay with A. niger IMI 149007 it was >12 500 ppm of diol; against C. albicans NCPF 3179, >12 500 ppm of diol; in assay [2] it was >50 000 ppm of diol. Moreover, the “MIC value, to” value against P. vulgaris NCIMB 4175 is reported as “≦6 250 ppm of diol”; in the assay with E. coli NCIMB 8545, “≦6 250 ppm of diol”; in the assay on S. aureus NCIMB 9578, “≦6 250 ppm of diol”; in the assay on A. niger IMI 149007, “≦25 000 ppm of diol”; against C. albicans NCPF 3179 it was “≦25 000 ppm of diol”; in assay [2], “≦100 000 ppm of diol”. Further, the “Maximum MIC value, from” value in assay [1] was >50 000 ppm of diol. The “Maximum MIC value, to” value in assay [1] was “≦100 000 ppm of diol”.

As to `CC(O)CO` (centres unmarked) [Propylene Glycol], the “MIC value, from” value with P. vulgaris NCIMB 4175 is listed as >100 000 ppm of diol; in the assay with E. coli NCIMB 8545 it was >200 000 ppm of diol; against S. aureus NCIMB 9578, >200 000 ppm of diol; against A. niger IMI 149007, >200 000 ppm of diol; in the assay on C. albicans NCPF 3179, >200 000 ppm of diol; in assay [2], >100 000 ppm of diol. Besides, the “MIC value, to” value in the assay on P. vulgaris NCIMB 4175 is recorded as “≦200 000 ppm of diol”; in the assay on E. coli NCIMB 8545, “≦400 000 ppm of diol”; with S. aureus NCIMB 9578, “≦400 000 ppm of diol”; in the assay with A. niger IMI 149007, “≦400 000 ppm of diol”; in the assay on C. albicans NCPF 3179, “≦400 000 ppm of diol”; in assay [2], “≦200 000 ppm of diol”. Moreover, the “Maximum MIC value, from” value in assay [1] is listed as >200 000 ppm of diol. For the same compound, the “Maximum MIC value, to” value in assay [1] is “≦400 000 ppm of diol”.
